{
  "source": "patent US9273006B2",
  "about": "“Anabolic compounds for treating and preventing bone loss diseases” (SYDDANSK UNIVERSITET, priority 2012, dated 2016)",
  "key": {"hMSC-TERT [1]": {"tested_on": "hMSC-TERT", "assay": "In vitro osteoblast differentiation in OIM (ALP activity, alizarin red, qRT-PCR)", "format": "cell-based, human", "description": "(§1) F) H-8 enhances ALP activity of hMSC, in the absence of serum.\nAdding H-8 (25 μM) to the osteogenic induction media, during 9-days in vitro hMSC osteogenic differentiation, enhanced expression of osteoblastic markers as shown by qRT-PCR analysis. **P≦0.05, ***P≦0.005 (significant difference as compared to vehicle).\nH-8 was added (25 μM) to the OIM at different time points during 12-days period.\n(§2) In order to confirm the results obtained from the initial screen, the present inventors incubated hMSC-TERT and primary human bone marrow derived MSC (hBMSC) in osteogenic induction medium (OIM) supplemented with H-8 (dose range 1-30 μM) or vehicle. […] To determine the stage of differentiation at which the effect of H-8 was most apparent, the present inventors added H-8 (25 μM) to the OIM at different time points during 12-days period."}, "protein kinase C(PKC)": {"biological_target": "protein kinase C(PKC)", "conditions": "cited from earlier work"}, "[2]": {"tested_on": "hMSC implanted in mouse calvarial defect", "assay": "hMSC survival in vivo, mouse calvarial defect model", "conditions": "4 weeks after implantation of treated hMSC"}, "[3]": {"tested_on": "hMSC-TERT implants in SCID/NOD mice", "assay": "In vivo heterotopic bone formation of hMSC-TERT implanted with HA/TCP", "description": "(A) Treatment of hMSC-TERT4 with H-8 (25 μM) for 7 days in vitro enhanced the in vivo heterotopic bone formation ability of the cells. (B) Systemic injection of H-8 at 30 mg/kg/day enhanced the amount of the heterotopic bone formed by hMSC-TERT4 implanted in SCID/NOD mice. (C) Human specific Vimentin staining confirmed that the newly formed heterotopic bone is of human origin. *P≦0.05 (significant difference as compared to vehicle).\nTo determine the effect of H-8 treatment on the ability of hMSC to form heterotopic bone in vivo, hMSC-TERT were treated with H-8 (25 μM) or vehicle for 7 days, mixed with hydroxyapatite/tricalcium phosphate (HA/TCP) as osteoconductive carrier, and implanted subcutaneously in SCID/NOD mice. […] Human specific vimentin staining confirmed that the newly formed heterotopic bone is of human origin (FIG. 6C)."}, "[4]": {"tested_on": "human adipose tissue derived MSC (hAT-MSC)", "assay": "In vitro osteoblast differentiation (ALP activity, alizarin red)", "format": "cell-based"}, "osteoclast": {"tested_on": "osteoclast", "conditions": "table 1 of Soerensen et al; cited from earlier work"}, "[5]": {"assay": "Necropsy after systemic H-8 injection", "format": "in vivo", "conditions": "systemic injection 5, 15, 30 mg/kg/day for 4 weeks"}, "TGFβ signaling in hMSC": {"tested_on": "TGFβ signaling in hMSC", "assay": "TGFβ signaling, qRT-PCR and western blot", "format": "cell-based, human", "conditions": "5 and 15 minutes after treatment", "text": "(C): Western blot analysis of p-Smad and p-Akt reveled that the enahcing effect of H-8 on osteoblast differentiation of hMSC is mediated through activation of non-canonical TGFβ signaling. (D): SB431542, a selective inhibitor of TGWU activity abolished the enhanced phosphorylation of Akt and smad2 after H-8 treatment.\nTo investigate the mechanisms of the enhancing effects of H-8 on osteoblast differentiation of hMSC, the present inventors performed a DNA microarray analysis of hMSC-TERT under osteogenic culture conditions, in the presence or absence of the H-8 (25 μM). […] In order to identify the pathway that is primarily regulated by H-8 treatment, phosphorylation of canonical and non-canonical TGFβ signaling components was evaluated 5 minutes and 15 minutes after H-8 treatment. The inventors also evaluated the effect of TGFβ3 treatment on H-8 induced phosphorylation of Smad2 and Akt. […] This observation further confirms that the enhancing effect of H-8 on osteoblast differentiation of hMSC is mediated through regulation of TGFβ signaling."}, "[6]": {"tested_on": "human CD14+ mononuclear cells", "assay": "Osteoclast formation, count of TRAP-positive multinucleated cells", "format": "cell-based", "conditions": "25 μM, day 5 of differentiation", "text": "The present inventors determined the effects of H-8 on osteoclast formation in peripheral blood-derived human CD14+ mononuclear cell cultures."}, "[7]": {"tested_on": "primary human bone marrow derived MSC (hBMSC)", "assay": "In vitro osteoblast differentiation in OIM (ALP activity, alizarin red)", "format": "cell-based", "conditions": "dose range 1-30 μM", "description": "as §1, §2"}, "hMSC": {"tested_on": "hMSC", "assay": "hMSC survival in vitro, western blot of activated Caspase-3", "format": "cell-based, human", "conditions": "25 μM, during osteoblast differentiation", "description": "A) H-8 treatment of hMSC (25 μM) during osteoblast differentiation, decreased apoptosis, as shown by western blot analysis of activated Caspase-3.\nTo investigate the effect of H-8 on hMSC survival in vitro, activation of Caspase-3 was evaluated, using western blot analysis."}, "[8]": {"biological_target": "Myosin Light Chain Kinase (MLCK) (Homo sapiens, UniProt Q15746)", "sequence (Q15746 whole entry)": "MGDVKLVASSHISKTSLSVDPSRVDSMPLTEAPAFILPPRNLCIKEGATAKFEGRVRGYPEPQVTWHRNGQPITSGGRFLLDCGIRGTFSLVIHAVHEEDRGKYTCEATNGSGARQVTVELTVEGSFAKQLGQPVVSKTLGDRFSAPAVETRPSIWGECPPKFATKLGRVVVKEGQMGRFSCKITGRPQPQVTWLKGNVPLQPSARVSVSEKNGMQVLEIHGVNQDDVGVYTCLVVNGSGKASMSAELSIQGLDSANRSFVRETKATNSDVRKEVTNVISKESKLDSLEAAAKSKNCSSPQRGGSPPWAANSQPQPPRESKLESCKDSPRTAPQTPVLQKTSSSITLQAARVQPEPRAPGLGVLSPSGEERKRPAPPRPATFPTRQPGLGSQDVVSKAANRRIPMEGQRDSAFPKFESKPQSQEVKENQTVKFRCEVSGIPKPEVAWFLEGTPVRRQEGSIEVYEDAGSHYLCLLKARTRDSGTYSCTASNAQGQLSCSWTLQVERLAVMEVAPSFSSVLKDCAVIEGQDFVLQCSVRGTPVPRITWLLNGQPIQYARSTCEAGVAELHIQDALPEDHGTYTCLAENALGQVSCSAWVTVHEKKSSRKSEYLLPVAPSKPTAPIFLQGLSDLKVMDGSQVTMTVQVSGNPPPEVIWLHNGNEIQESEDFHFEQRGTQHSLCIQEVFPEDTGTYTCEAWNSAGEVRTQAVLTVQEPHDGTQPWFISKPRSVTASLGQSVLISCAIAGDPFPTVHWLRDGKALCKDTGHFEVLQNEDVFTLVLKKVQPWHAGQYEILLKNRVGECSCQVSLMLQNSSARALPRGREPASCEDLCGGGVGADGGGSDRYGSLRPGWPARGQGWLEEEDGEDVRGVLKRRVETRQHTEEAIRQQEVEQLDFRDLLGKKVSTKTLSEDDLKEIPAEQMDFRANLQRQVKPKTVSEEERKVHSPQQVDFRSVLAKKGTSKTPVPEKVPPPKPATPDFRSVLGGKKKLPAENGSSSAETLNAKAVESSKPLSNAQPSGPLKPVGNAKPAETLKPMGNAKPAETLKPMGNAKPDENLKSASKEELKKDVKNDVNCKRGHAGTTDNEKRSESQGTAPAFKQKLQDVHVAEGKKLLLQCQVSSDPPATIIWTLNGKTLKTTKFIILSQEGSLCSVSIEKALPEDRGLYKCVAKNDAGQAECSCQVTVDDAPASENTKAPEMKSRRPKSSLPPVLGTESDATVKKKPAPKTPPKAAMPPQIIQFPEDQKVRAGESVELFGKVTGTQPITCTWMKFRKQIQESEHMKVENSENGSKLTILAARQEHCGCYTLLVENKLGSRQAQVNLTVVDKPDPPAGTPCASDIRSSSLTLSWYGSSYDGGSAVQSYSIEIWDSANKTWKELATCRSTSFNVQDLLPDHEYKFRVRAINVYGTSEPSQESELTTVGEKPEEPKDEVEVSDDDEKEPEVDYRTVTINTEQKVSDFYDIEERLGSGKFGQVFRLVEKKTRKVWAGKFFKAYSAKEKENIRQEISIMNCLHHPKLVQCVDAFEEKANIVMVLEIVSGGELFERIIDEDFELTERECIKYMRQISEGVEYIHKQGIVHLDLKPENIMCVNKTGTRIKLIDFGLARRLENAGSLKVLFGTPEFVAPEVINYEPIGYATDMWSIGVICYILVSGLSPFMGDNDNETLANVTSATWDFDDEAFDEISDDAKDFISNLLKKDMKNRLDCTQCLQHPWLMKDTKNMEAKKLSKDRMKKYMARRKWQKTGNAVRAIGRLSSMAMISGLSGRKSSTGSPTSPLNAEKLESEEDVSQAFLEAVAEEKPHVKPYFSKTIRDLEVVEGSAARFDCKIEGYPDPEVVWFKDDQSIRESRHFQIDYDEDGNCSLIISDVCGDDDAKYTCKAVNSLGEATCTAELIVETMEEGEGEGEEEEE", "conditions": "cited from earlier work"}, "protein kinase G (PKG)": {"biological_target": "T1, protein kinase G (PKG) (Homo sapiens, UniProt Q13976)", "T1 sequence (Q13976 1-671)": "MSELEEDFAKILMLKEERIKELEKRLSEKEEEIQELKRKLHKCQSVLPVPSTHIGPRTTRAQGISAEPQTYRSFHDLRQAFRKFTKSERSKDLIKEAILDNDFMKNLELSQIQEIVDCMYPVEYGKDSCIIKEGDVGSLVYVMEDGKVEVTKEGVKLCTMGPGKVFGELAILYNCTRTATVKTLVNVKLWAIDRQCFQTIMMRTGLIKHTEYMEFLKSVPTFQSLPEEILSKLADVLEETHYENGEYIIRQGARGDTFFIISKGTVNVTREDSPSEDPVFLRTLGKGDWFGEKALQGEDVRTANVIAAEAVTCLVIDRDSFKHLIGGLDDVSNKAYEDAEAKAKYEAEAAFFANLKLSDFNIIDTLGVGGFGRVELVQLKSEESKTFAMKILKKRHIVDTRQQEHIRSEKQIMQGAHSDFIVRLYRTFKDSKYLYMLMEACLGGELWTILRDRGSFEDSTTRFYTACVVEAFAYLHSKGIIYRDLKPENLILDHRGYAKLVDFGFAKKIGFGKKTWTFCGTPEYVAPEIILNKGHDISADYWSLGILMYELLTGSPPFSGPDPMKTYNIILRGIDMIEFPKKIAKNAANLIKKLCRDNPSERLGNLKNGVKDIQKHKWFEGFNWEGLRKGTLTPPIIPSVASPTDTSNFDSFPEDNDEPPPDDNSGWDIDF", "conditions": "cited from earlier work"}, "hMSC-TERT [9]": {"tested_on": "hMSC-TERT", "assay": "Adipocyte differentiation (Oil red O, qRT-PCR of adipogenic markers)", "format": "cell-based, human", "conditions": "25 μM in adipogenic induction media; Oil red O day 15, qRT-PCR day 10", "description": "To determine the effect of H-8 on adipocyte differentiation of hMSC, H-8 was added (25 μM) to the adipogenic induction media (AIM) of hMSC-TERT."}, "hMSC-TERT [10]": {"tested_on": "hMSC-TERT", "conditions": "6 days after induction, hMSC-TERT"}},
  "note": "Like-named read-outs stand apart in the source and are kept apart here.",
  "data": [
    {"compound": "CNCCNS(=O)(=O)c1cccc2cnccc12", "note": "[H-8, N-[2-(methylamino)ethyl]-5-isoquinolinesulfonamide]", "values": [
      {"measurement": "stage of differentiation at which H-8 is needed (matrix mineralization)", "setting": "hMSC-TERT [1]; 25 μM added at different time points during 12-days period", "value": "needed during the first 9 days to exert its effects"},
      {"measurement": "gene expression of osteogenic markers (qRT-PCR)", "setting": "hMSC-TERT [1]; 25 μM, 9-days in vitro hMSC osteogenic differentiation", "value": "enhanced gene expression of early and late osteogenic markers"},
      {"measurement": "ALP enhancing effect in serum free induction media", "setting": "hMSC-TERT [1]; 25 μM, serum free induction media", "value": "persists in the absence of serum"},
      {"measurement": "optimal concentration for highest enhancement of osteoblast differentiation of hMSC", "setting": "hMSC-TERT [1]; based on in vitro studies", "value": "20 to 30", "unit": "µM"},
      {"measurement": "dependence of ALP enhancing effect on differentiation inducers", "setting": "hMSC-TERT [1]; each component of osteoblastic induction media removed", "value": "not dependent on differentiation inducers"},
      {"measurement": "ALP activity", "setting": "hMSC-TERT [1]; hMSC-TERT, OIM, dose range 1-30 μM, day 6, dose-dependent", "value": "significantly increased"},
      {"measurement": "matrix mineralization (alizarin red staining)", "setting": "hMSC-TERT [1]; hMSC-TERT, OIM, dose range 1-30 μM, day 12, dose-dependent", "value": "significantly increased"},
      {"measurement": "IC50", "setting": "protein kinase C(PKC)", "value": 15, "unit": "µM"},
      {"measurement": "hMSC survival in vivo (luminescent imaging)", "setting": "[2]", "value": "increased hMSC survival"},
      {"measurement": "heterotopic bone formation, cells pre-treated in vitro", "setting": "[3]; hMSC-TERT treated 25 μM for 7 days, implanted subcutaneously, histology after 8 weeks", "value": "enhanced amount of heterotopic bone formation"},
      {"measurement": "heterotopic bone formation, systemic treatment", "setting": "[3]; intraperitoneally 30 mg/kg/day for 4 weeks after implantation of HA/TCP-hMSC-TERT", "value": "increased amount of heterotopic bone formation"},
      {"measurement": "matrix mineralization (alizarin red staining)", "setting": "[4]; 25 μM, day 10 of differentiation", "value": "enhanced matrix mineralization"},
      {"measurement": "ALP activity", "setting": "[4]; day 6 of osteoblastic differentiation", "value": "dose dependent enhancing effect"},
      {"measurement": "osteoclastic acid secretion", "setting": "osteoclast", "value": "no effect on osteoclastic acid secretion"},
      {"measurement": "necropsy, toxic effects", "setting": "[5]", "value": "all tissues looked normal"},
      {"measurement": "Akt phosphorylation (western blot)", "setting": "TGFβ signaling in hMSC", "value": "enhanced Akt phosphorylation at both 5 and 15 minutes"},
      {"measurement": "Smad2 phosphorylation (western blot)", "setting": "TGFβ signaling in hMSC", "value": "enhanced Smad2 phosphorylation was detected only 15 minutes after H-8 treatment"},
      {"measurement": "osteoclast formation (TRAP-positive multinucleated cells)", "setting": "[6]", "value": "did not affect osteoclast formation"},
      {"measurement": "ALP activity", "setting": "[7]; day 6, dose-dependent", "value": "significantly increased"},
      {"measurement": "matrix mineralization (alizarin red staining)", "setting": "[7]; day 12, dose-dependent", "value": "significantly increased"},
      {"measurement": "activated Caspase-3 (western blot), hMSC survival", "setting": "hMSC", "value": "reduced level of activated Caspase-3"},
      {"measurement": "IC50", "setting": "[8]", "value": 68, "unit": "µM"},
      {"measurement": "IC50", "setting": "protein kinase G (PKG)", "value": 0.48, "unit": "µM"},
      {"measurement": "adipocyte differentiation of hMSC", "setting": "hMSC-TERT [9]", "value": "does not affect adipocyte differentiation"},
      {"measurement": "Relative ALP activity", "setting": "hMSC-TERT [10]; 1 μM inhibitor in osteogenic inducing media", "value": 1.701},
      {"measurement": "Relative ALP activity", "setting": "hMSC-TERT [10]; 10 μM inhibitor in osteogenic inducing media", "value": 1.87}
    ]}
  ]
}
